Data reported in ChEMBL document CHEMBL5252665, “The Identification of GPR52 Agonist HTL0041178, a Potential Therapy for Schizophrenia and Related Psychiatric Disorders” (ACS Med Chem Lett, 2023).
Blank lines part the entries; values can stand above or below the compound they belong to.

Key:
[1] = Lipophilicity, logP of the compound by shake flask assay; format: physicochemical; conditions: octanol/water
[2] = Metabolic stability in rat liver microsomes assessed as intrinsic clearance preincubation with compound followed by NADPH addition and measured after 45 mins by LC-MS/MS analysis; format: ADME, Microsome; conditions: read-out: CLH
[3] = Octanol-water partition coefficient, log D of the compound by chromatographic method; format: physicochemical
[4] = Metabolic stability in human liver microsomes assessed as intrinsic clearance preincubation with compound followed by NADPH addition and measured after 45 mins by LC-MS/MS analysis; format: ADME, Microsome; conditions: read-out: CLH
[5] = Apparent permeability of compound across apical to basolateral side in dog MDCK-MDR1 cells incubated for 1 hr by LC-MS/MS analysis; format: ADME, cell-based, Canis lupus familiaris
[6] = AUC (0 to infinity) in cynomolgus monkey at 3 mg/kg,po by LC-MS/MS analysis; format: ADME, organism-based, Macaca fascicularis; design: dose 3 mg/kg, route po; conditions: in vivo
[7] = Half life in cynomolgus monkey at 1 mg/kg,iv by LC-MS/MS analysis; format: ADME, organism-based, Macaca fascicularis; conditions: in vivo
[8] = AUC (0 to infinity) in CD-1 mouse at 1 mg/kg,iv by LC-MS/MS analysis; format: ADME, organism-based; design: dose 1 mg/kg, route iv; conditions: in vivo
[9] = Terminal free brain concentration in Sprague-Dawley rat model of amphetamine-induced hyperlocomotion activity at 10 mg/kg, po measured after 2 hrs by LC-MS/MS analysis; format: ADME, organism-based; conditions: in vivo
[10] = Oral absorption in cynomolgus monkey at 3 mg/kg by LC-MS/MS analysis; format: ADME, organism-based, Macaca fascicularis; conditions: in vivo, read-out: Drug absorption
[11] = Clearance in Sprague-Dawley rat plasma at 1 mg/kg,iv by LC-MS/MS analysis; format: ADME, organism-based
[12] = Oral bioavailability in cynomolgus monkey at 3 mg/kg by LC-MS/MS analysis; format: ADME, organism-based, Macaca fascicularis; conditions: in vivo
[13] = Cmax in cynomolgus monkey at 3 mg/kg,po by LC-MS/MS analysis; format: ADME, organism-based, Macaca fascicularis; design: dose 3 mg/kg, route po; conditions: in vivo
[14] = Unbound brain-to-plasma concentration ratio in Sprague-Dawley rat plasma at 1 mg/kg,iv by LC-MS/MS analysis; format: ADME, organism-based; conditions: brain and plasma, read-out: K(p,uu,brain)
[15] = Clearance in cynomolgus monkey plasma at 1 mg/kg,iv by LC-MS/MS analysis; format: ADME, organism-based, Macaca fascicularis
[16] = Oral absorption in CD-1 mouse at 3 mg/kg by LC-MS/MS analysis; format: ADME, organism-based; conditions: in vivo
[17] = AUC (0 to infinity) in CD-1 mouse at 3 mg/kg,po by LC-MS/MS analysis; format: ADME, organism-based; design: dose 3 mg/kg, route po; conditions: in vivo
[18] = Oral absorption in Sprague-Dawley rat at 3 mg/kg by LC-MS/MS analysis; format: ADME, organism-based; conditions: in vivo
[19] = Volume of distribution at steady state in CD-1 mouse at 1 mg/kg,iv by LC-MS/MS analysis; format: ADME, organism-based; conditions: in vivo, read-out: Vdss
[20] = Half life in Sprague-Dawley rat at 1 mg/kg,iv by LC-MS/MS analysis; format: ADME, organism-based; conditions: in vivo
[21] = Oral bioavailability in Sprague-Dawley rat at 3 mg/kg by LC-MS/MS analysis; format: ADME, organism-based; conditions: in vivo
[22] = Cmax in Sprague-Dawley rat at 3 mg/kg,po by LC-MS/MS analysis; format: ADME, organism-based; design: dose 3 mg/kg, route po; conditions: in vivo
[23] = Volume of distribution at steady state in Sprague-Dawley rat at 1 mg/kg,iv by LC-MS/MS analysis; format: ADME, organism-based; conditions: in vivo, read-out: Vdss
[24] = Half life in CD-1 mouse at 1 mg/kg,iv by LC-MS/MS analysis; format: ADME, organism-based; conditions: in vivo
[25] = Clearance in CD-1 mouse plasma at 1 mg/kg,iv by LC-MS/MS analysis; format: ADME, organism-based
[26] = Volume of distribution at steady state in cynomolgus monkey at 1 mg/kg,iv by LC-MS/MS analysis; format: ADME, organism-based, Macaca fascicularis; conditions: in vivo, read-out: Vdss
[27] = Oral bioavailability in CD-1 mouse at 3 mg/kg by LC-MS/MS analysis; format: ADME, organism-based; conditions: in vivo
[28] = Terminal brain concentration in Sprague-Dawley rat model of amphetamine-induced hyperlocomotion activity at 10 mg/kg, po measured after 2 hrs by LC-MS/MS analysis; format: ADME, organism-based; conditions: read-out: Clast
[29] = Cmax in CD-1 mouse at 3 mg/kg,po by LC-MS/MS analysis; format: ADME, organism-based; design: dose 3 mg/kg, route po; conditions: in vivo
[30] = AUC (0 to infinity) in Sprague-Dawley rat at 1 mg/kg,iv by LC-MS/MS analysis; format: ADME, organism-based; design: dose 1 mg/kg, route iv; conditions: in vivo
[31] = AUC (0 to infinity) in Sprague-Dawley rat at 3 mg/kg,po by LC-MS/MS analysis; format: ADME, organism-based; design: dose 3 mg/kg, route po; conditions: in vivo
[32] = AUC (0 to infinity) in cynomolgus monkey at 1 mg/kg,iv by LC-MS/MS analysis; format: ADME, organism-based, Macaca fascicularis; design: dose 1 mg/kg, route iv; conditions: in vivo

- logP [1]: 4
- microsomal CLint [2]: 25 µL/min/mg
- chromatographic logD [3]: 3.8
- microsomal CLint [4]: < 10 µL/min/mg
- Papp A→B at 1 h [5]: 38 ×10⁻⁶ cm/s
SMILES: O=C1NCCc2c1cnn2-c1cncc(Cc2cc(F)cc(C(F)(F)F)c2)c1

- microsomal CLint [2]: 120 µL/min/mg
- chromatographic logD [3]: 6.7
- microsomal CLint [4]: 50 µL/min/mg
- Papp A→B at 1 h [5]: 25 ×10⁻⁶ cm/s
SMILES: O=C1CCCc2c1cnn2-c1cc(Cc2cccc(C(F)(F)F)c2)ccn1

- chromatographic logD [3]: 4
SMILES: O=C1NCc2c1cnn2-c1ccnc(Cc2cc(F)cc(C(F)(F)F)c2)c1

- logP [1]: 3.1
- microsomal CLint [2]: 30 µL/min/mg
- chromatographic logD [3]: 5.1
- microsomal CLint [4]: 15 µL/min/mg
- Papp A→B at 1 h [5]: 32 ×10⁻⁶ cm/s
SMILES: O=C1NCCc2c1cnn2-c1cc(Cc2cc(F)cc(C(F)(F)F)c2)ccn1

- microsomal CLint [2]: 48 µL/min/mg
- chromatographic logD [3]: 5
- microsomal CLint [4]: < 10 µL/min/mg
SMILES: O=C1NCCc2c1cnn2-c1cccc(Cc2cc(F)cc(C(F)(F)F)c2)c1

- microsomal CLint [2]: 37 µL/min/mg
- chromatographic logD [3]: 3.3
- microsomal CLint [4]: 15 µL/min/mg
- Papp A→B at 1 h [5]: 30 ×10⁻⁶ cm/s
SMILES: O=C1NCCc2c1cnn2-c1ccnc(Cc2cc(F)cc(C(F)F)c2)c1

- microsomal CLint [2]: 102 µL/min/mg
- chromatographic logD [3]: 4.2
- microsomal CLint [4]: 21 µL/min/mg
SMILES: O=C1NCCCc2c1cnn2-c1ccnc(Cc2cc(F)cc(C(F)(F)F)c2)c1

- microsomal CLint [2]: 40 µL/min/mg
- chromatographic logD [3]: 4.4
- microsomal CLint [4]: 31 µL/min/mg
- Papp A→B at 1 h [5]: 46 ×10⁻⁶ cm/s
SMILES: Cc1nn(-c2ccnc(Cc3cc(F)cc(C(F)(F)F)c3)c2)c2c1C(=O)NCC2

- chromatographic logD [3]: 4.4
SMILES: O=C1NCCc2nn(-c3ccnc(Cc4cc(F)cc(C(F)(F)F)c4)c3)cc21

- microsomal CLint [2]: 71 µL/min/mg
- chromatographic logD [3]: 3.6
- microsomal CLint [4]: 32 µL/min/mg
- Papp A→B at 1 h [5]: 28 ×10⁻⁶ cm/s
SMILES: Cc1nn(-c2ccnc(Cc3cc(F)cc(C(F)F)c3)c2)c2c1C(=O)NCC2

- AUC [6]: 6327 ng·h/mL
- half-life [7]: 8 h
- AUC(0-inf) [8]: 2610 ng·h/mL
- Drug uptake(free) [9]: 41.2 nM
- logP [1]: 4.2
- Fa [10]: 85%
- microsomal CLint [2]: 25 µL/min/mg
- clearance [11]: 16 mL/min/kg
- F [12]: 81%
- Cmax [13]: 581 ng/mL
- Kp uu [14]: 0.35
- clearance [15]: 2 mL/min/kg
- Fa [16]: 80%
- chromatographic logD [3]: 3.9
- AUC(0-inf) [17]: 5910 ng·h/mL
- Fa [18]: 52%
- Vd [19]: 1.5 L/kg
- half-life [20]: 0.8 h
- microsomal CLint [4]: 11 µL/min/mg
- bioavailability [21]: 40%
- Cmax [22]: 285 ng/mL
- Vd [23]: 1 L/kg
- half-life [24]: 3.4 h
- clearance [25]: 6 mL/min/kg
- Vd [26]: 1.4 L/kg
- bioavailability [27]: 95%
- concentration at 2 h [28]: 1560 nM
- Cmax [29]: 486 ng/mL
- AUC(0-inf) [30]: 1020 ng·h/mL
- Papp A→B at 1 h [5]: 48 ×10⁻⁶ cm/s
- AUC(0-inf) [31]: 1260 ng·h/mL
- AUC [32]: 7854 ng·h/mL
SMILES: O=C1NCCc2c1cnn2-c1ccnc(Cc2cc(F)cc(C(F)(F)F)c2)c1

- chromatographic logD [3]: 4
SMILES: O=C1NCCc2c1nnn2-c1ccnc(Cc2cc(F)cc(C(F)(F)F)c2)c1

- microsomal CLint [2]: 33 µL/min/mg
- chromatographic logD [3]: 5.8
- microsomal CLint [4]: 62 µL/min/mg
- Papp A→B at 1 h [5]: 30 ×10⁻⁶ cm/s
SMILES: CN1CCc2c(cnn2-c2cc(Cc3cc(F)cc(C(F)(F)F)c3)ccn2)C1=O

- microsomal CLint [2]: 46 µL/min/mg
- clearance [11]: 39 mL/min/kg
- Kp uu [14]: 0.4
- chromatographic logD [3]: 4.9
- Fa [18]: > 100%
- half-life [20]: 0.6 h
- microsomal CLint [4]: < 10 µL/min/mg
- bioavailability [21]: 54%
- Cmax [22]: 143 ng/mL
- Vd [23]: 1.5 L/kg
- AUC(0-inf) [30]: 440 ng·h/mL
- Papp A→B at 1 h [5]: 46 ×10⁻⁶ cm/s
- AUC(0-inf) [31]: 709 ng·h/mL
SMILES: O=C1NCCc2c1cnn2-c1cc(Cc2cccc(C(F)(F)F)c2)ccn1

- microsomal CLint [2]: 63 µL/min/mg
- chromatographic logD [3]: 3.9
- microsomal CLint [4]: 34 µL/min/mg
- Papp A→B at 1 h [5]: 32 ×10⁻⁶ cm/s
SMILES: Cc1nn(-c2ccnc(Cc3cc(F)cc(OC(F)F)c3)c2)c2c1C(=O)NCC2

- microsomal CLint [2]: 57 µL/min/mg
- chromatographic logD [3]: 4.6
- microsomal CLint [4]: 24 µL/min/mg
SMILES: O=C1NCCc2c1cnn2-c1ccnc(Cc2cc(F)c(Cl)c(C(F)(F)F)c2)c1

- microsomal CLint [2]: 63 µL/min/mg
- chromatographic logD [3]: 4.1
- microsomal CLint [4]: 27 µL/min/mg
- Papp A→B at 1 h [5]: 48 ×10⁻⁶ cm/s
SMILES: Cc1nn(-c2cncc(Cc3cc(F)cc(C(F)(F)F)c3)c2)c2c1C(=O)NCC2
